{
  "source": "patent US11400102B2",
  "about": "“Treatment for bacterial infections with salicylic acid analogs” (priority 2019, dated 2022)",
  "key": {"yersiniabactin": {"test_system": "yersiniabactin", "assay": "Mutasynthesis study: incorporation of variant salicylic acids into yersiniabactin (LC-MS)", "assay_type": "cell-based, uropathogenic E. coli (UTI89ΔybtS)", "description": "FIG. 11 depicts the experimental protocol for the screening assay. […] a strain of uropathogenic E. coli (UTI89ΔybtS) that cannot produce endogenous salicylic acid but can be chemically complemented with salicylic acid in growth medium. […]+1% casamino acids (CAA) and 20 μM 2′,2′-dipyridyl (DP) were added along with a variety of variant salicylic acids (Table 1) bearing different moieties on carbons 3 to 6. The amount of Ypt in the sample was then quantified using LC-MS.\nWalking around the Figure from bottom left: -LC-MS method called neutral loss, where any molecule that loses 187 mass units that are characteristic of yersiniabactin, -different metal species of yersiniabactin can be detected in the supernatant of a UTI89 culture; these have distinct retention times by liquid chromatography; confirm that the molecules contributing to this LC peak are a variant yersiniabactin with a fluorine by the mass."}, "[1]": {"test_system": "yersiniabactin biosynthesis", "assay": "Culture screen of salicylate analogs for yersiniabactin (Fe-Ybt) in UTI89 supernatant by LC-MS", "assay_type": "cell-based, uropathogenic E. coli UTI89", "details": "Escherichia coli, read-out: yersiniabactin inhibition", "text": "While investigating in vivo Ybt production in the mouse cystitis model, we observed that a salicylate synthase-deficient uropathogen (UTI89ΔybtS) produces Ybt at near-wild type levels (FIG. 6A). We biochemically connected this phenotype to a uropathogenic ability to scavenge low level urinary salicylate (of presumed dietary origin) (31) as a yersiniabactin biosynthetic substrate. Both human and mouse urine chemically complemented UTI89ΔybtS in this manner, showing that low micromolar salicylate accesses cytoplasmic siderophore biosynthetic enzymes. […] Active compounds could be further divided into those that inhibit the yersiniabactin biosynthetic activity and those that displace the native salicylate substrate, resulting in a variant form of yersiniabactin (vYbt) containing the modified salicylate ring (see fluorinated yersiniabactin in FIG. 6D). The latter process, termed mutasynthesis, has been described for the related pyochelin siderophore system in Pseudomonas (32).\nUTI189 cultures were grown overnight in media supplemented with M63+DP+CAA and 50 μM of a salicylic acid analog. Supernatants were then examined for ferric-Ybt and the area of the MS-peak corresponding to that complex was measured. […] In many cases, a 5-fold or greater reduction was observed (FIG. 17).\nAs described in Example 10, a culture based screen of yersiniabactin biosynthetic inhibitor candidates was undertaken. The screening protocol is described in FIG. 20; E. coli were cultured in 96 well plates at 37° C. in the presence of various yersiniabactin inhibitor candidates. The yersiniabactin secretion in the media was measured using LC-MS using an internal standard (leucine encephalin). Bacterial growth, measured by optical density, was assessed for general toxicity and LC-MS quantification of enterobactin, a related but chemically and biochemically distinct, siderophore in medium at endpoint was measured for off-target activity."}, "[2]": {"test_system": "yersiniabactin production", "assay": "Dose response of yersiniabactin production in UTI89 culture", "assay_type": "cell-based, Uropathogenic E. coli strain UTI89", "details": "for EC50: Escherichia coli", "description": "Three biological triplicate experiments were completed wherein the % Ybt was measured relative to untreated controls (UTI189Δ189 in 70% ETOH). […] The experimental details describing how Ybt was quantified (using mass spectrometry) and how samples were prepared and treated are described in Chaturvedi, K S et al. Nature chemical biology. 8.8(2012):731-736.\nFIGS. 25 and 26 show the effect of 5-methyl salicylic acid on yersiniabactin production in an E. coli culture. In FIG. 25, a dose response curve of yersiniabactin synthesis in the presence of increasing concentrations of 5-methyl-salicylate is shown. Uropathogenic E. coli strain UTI89 were grown in low iron culture with the indicated concentrations of 5-methyl salicylate. Yersiniabactin content of culture supernatants was measured by LC-MS/MS relative to an internal standard. The EC50 was determined to be 0.89±0.10 μM. In FIG. 26 a representative mass spectra is depicted illustrating the presence of yersiniabactin fragments in untreated control (left panel) that are missing in media treated with 5-methyl salicylic acid (right panel).\nUropathogenic bacteria were again grown in low iron culture in the presence of varying concentrations of salicylic acid serivatives having different methylation positions."}, "[3]": {"test_system": "yersiniabactin production", "assay": "Yersiniabactin and intermediates (HPT, Esn) in clinical urinary E. coli isolates", "assay_type": "cell-based", "details": "50 μM, FIGS. 30-33", "description": "The following clinical urinary E. coli isolates were chosen since they each secrete yersiniabactin: rUTI2, JMUSB64(490), JMUSB40(518), JMUSB115(530), JMUSB351(544), JMUB470(557), fCAUTI/B2 (sequence type ST131: ZZ13, ZZ15, ZZ16, ZZ18, ZZ22, and non ST131:ZZ23).\nSpecifically, HPT and escherichelin (Esn) were measured alongside the end product yersiniabactin. In addition, the production of enterobactin was measured as a counterscreen. In FIGS. 30-33, relative amounts of each analyte (HPT, Esn, Yrt) are depicted for each culture exposed to 50 μM of each inhibitor. A graph corresponding to reference UTI89 is reproduced in each figure (upper left).\nThere was negligible effect on enterobactin biosynthesis as well as less inhibition of biosynthetic precursors to yersiniabactin: HPT and HPTT. […] In this manner, HPTT/escherichelin production by E. coli may protect human hosts."}, "[4]": {"test_system": "yersiniabactin production (YbtE)", "assay": "Aryl acid adenylating enzyme inhibitors: yersiniabactin production by UTI89", "assay_type": "cell-based, E. coli UTI89", "details": "AAAE inhibitors", "text": "(§1) Restored yersiniabactin biosynthesis in a salicylate synthase deletion mutant (UTI89ΔybtS) during UTI led us to evaluate the pathway's subsequent biosynthetic enzyme—the aryl acid adenylating enzyme (AAAE) YbtE—as a drug target. UTI89ΔybtE produced no detectable yersiniabactin at 1 day, 1 week or 2 weeks following inoculation and is furthermore less virulent than wild type UTI89, as evidenced by a fewer chronically infected mice, a notable result for a non-conserved gene (FIG. 7A). We evaluated YbtE and its enterobactin pathway equivalent EntE as candidate drug targets using a series of six rationally-designed, non-hydrolyzable nucleoside AAAE inhibitors from the laboratory of Courtney Aldrich (see collaboration letter).\nTo test whether interference with the downstream adenylating enzyme, YbtE, could also affect yersiniabactin production, a series of YbtE inhibitors were applied to cultures of UTI89 and the Fe-Ybt peak ratio measured (FIG. 19). UT189 was grown overnight in medium supplemented with M63, DP and CAA and 100 μM of the tested compounds. […] Therefore, the salicylic analogs may act to inhibit YbtE, rather than YbtS, in the biosynthetic pathway to reduce overall production of yersiniabactin."}, "[5]": {"test_system": "enterobactin production (EntE)", "assay": "Aryl acid adenylating enzyme inhibitors: enterobactin production by UTI89", "assay_type": "cell-based, E. coli UTI89", "details": "AAAE inhibitors", "text": "as §1"}, "UPEC urinary growth": {"test_system": "UPEC urinary growth", "assay": "Urinary growth assay in the presence of Lcn2", "assay_type": "cell-based, uropathogenic E. coli", "details": "human urine", "text": "Both neutrophils and epithelial cells produce and secrete the soluble protein Lipocalin 2 (Lcn2) into the urine and bladder lumen. Lcn2 binds a wide range of […] and their ferric complexes, presumably restricting their availability to bacteria (28). We used purified Lcn2, human urine specimens, and our panel of UPEC siderophore mutants to determine whether siderophore systems counteract Lcn2's presumed bacteriostatic activity. […] We further discovered that this phenotype varies between individual urines such that urinary growth is strongly enterobactin-dependent in some (“restrictive” individuals) and less so in others (“permissive” individuals). We have related this to a distinctive urinary metabolomic biomarker profile (29) in these individuals. […]\nRestored yersiniabactin biosynthesis in a salicylate synthase deletion mutant (UTI89ΔybtS) during UTI led us to evaluate the pathway's subsequent biosynthetic enzyme—the aryl acid adenylating enzyme (AAAE) YbtE—as a drug target. […] We evaluated YbtE and its enterobactin pathway equivalent EntE as candidate drug targets using a series of six rationally-designed, non-hydrolyzable nucleoside AAAE inhibitors from the laboratory of Courtney Aldrich (see collaboration letter)."}, "[6]": {"test_system": "yersiniabactin production", "details": "FIG. 37"}, "enterobactin production": {"test_system": "enterobactin production", "details": "FIG. 37"}, "[7]": {"test_system": "Ybt-deficient (UTI89ΔybtS) culture", "assay": "Copper toxicity and Ybt cytoprotection in Ybt-deficient culture", "details": "10 μM cupric sulfate", "protocol": "Growth was determined and expressed as total CFU ml^−1. […] For each patient, the difference in urinary and nonurinary strain growth is reported such that a positive value indicates prefential growth by the urinary isolate. In the four patients from whom multiple coincident urinary and nonurinary strains were recovered, the mean growth difference is reported. […] NS, nonsignificant, indicating P>0.05. […] Results are shown as mean±s.d.; n=3; *P<0.05, **P<0.01 and ***P<0.001."}},
  "note": "“Also recorded” adds a separate entry of the source. Read-outs that look alike come from different tables or passages of the source.",
  "data": [
    {"smiles": "O=C(O)c1c(O)ccc2ccccc12", "note": "[2-hydroxy-1-naphthoic acid]", "values": [
      {"measurement": "incorporation into variants of yersiniabactin", "setting": "yersiniabactin; listed as 2-hydroxy-1-naphoic acid", "value": "lack of incorporation"},
      {"measurement": "incorporation into variants of yersiniabactin", "setting": "yersiniabactin; listed as 2-hydroxy-1-nathoic acid", "value": "not incorporated"}
    ]},
    {"smiles": "O=C(O)c1ccc(Cl)cc1O", "note": "[4-chlorosalicylic acid]", "values": [
      {"measurement": "inhibition at 50 µM", "setting": "[1]", "value": "> 90", "unit": "%"}
    ]},
    {"smiles": "O=C(O)c1cc(F)ccc1O", "note": "[5-fluorosalicylic acid]", "values": [
      {"measurement": "incorporation into variants of yersiniabactin", "setting": "yersiniabactin", "value": "incorporated; also recorded: incorporation"}
    ]},
    {"smiles": "Cc1ccc(O)c(C(=O)O)c1", "note": "[5-methylsalicylic acid]", "values": [
      {"measurement": "inhibition at 50 µM", "setting": "[1]", "value": "> 90", "unit": "%"},
      {"measurement": "EC50", "setting": "[2]; read-out: EC50, % Ybt relative to untreated controls", "value": "~1900", "unit": "nM"},
      {"measurement": "EC50", "setting": "[2]; read-out: EIC, inhibits biosynthesis in culture", "value": "~2000", "unit": "nM"},
      {"measurement": "EC50", "setting": "[2]; UTI89, low iron culture, LC-MS/MS, FIG. 25, read-out: EC50, yersiniabactin content of culture supernatants", "value": "890 ± 100", "unit": "nM"},
      {"measurement": "order of yersiniabactin inhibition, most potent to least potent", "setting": "[3]", "value": "most potent"},
      {"measurement": "yersiniabactin expression in a variety of strains", "setting": "[3]", "value": "very effective"}
    ]},
    {"smiles": "O=C(O)c1c(O)cccc1F", "note": "[6-fluorosalicylic acid]", "values": [
      {"measurement": "inhibition at 50 µM", "setting": "[1]", "value": "> 90", "unit": "%"},
      {"measurement": "order of yersiniabactin inhibition, most potent to least potent", "setting": "[3]", "value": "least potent"}
    ]},
    {"smiles": "Cc1cccc(O)c1C(=O)O", "note": "[6-methylsalicylic acid]", "values": [
      {"measurement": "inhibition at 50 µM", "setting": "[1]", "value": "> 90", "unit": "%"},
      {"measurement": "yersiniabactin inhibitory activity, dose response", "setting": "[2]; low iron culture, methylated salicylic acids, FIG. 27", "value": "limited activity"}
    ]},
    {"smiles": "Nc1ncnc2c1ncn2[C@@H]1O[C@H](COS(=O)(=O)NC(=O)c2cccc(O)c2O)[C@@H](O)[C@H]1O", "note": "[DHB-AMS]", "values": [
      {"measurement": "yersiniabactin production by UTI89", "setting": "[4]", "value": "completely inhibiting"},
      {"measurement": "enterobactin production by UTI89", "setting": "[5]", "value": "completely inhibiting"},
      {"measurement": "phenotype in the urinary growth assay", "setting": "UPEC urinary growth", "value": "mimicked an enterobactin biosynthesis mutant phenotype"}
    ]},
    {"smiles": "Nc1ncnc2c1ncn2[C@@H]1O[C@H](COS(=O)(=O)NC(=O)c2ccccc2O)[C@@H](O)[C@H]1O", "note": "[Sal-AMS]", "values": [
      {"measurement": "yersiniabactin production by UTI89", "setting": "[4]", "value": "completely inhibiting"},
      {"measurement": "enterobactin production by UTI89", "setting": "[5]", "value": "completely inhibiting"}
    ]},
    {"smiles": "COc1cc(Cc2cnc(N)nc2N)cc(OC)c1OC", "note": "[TMP, trimethoprim]", "values": [
      {"measurement": "yersiniabactin production", "setting": "[6]", "value": "markedly decrease"},
      {"measurement": "enterobactin production", "setting": "enterobactin production", "value": "not"}
    ]},
    {"smiles": "O=S(=O)([O-])[O-].[Cu+2]", "note": "[copper, cupric sulfate]", "values": [
      {"measurement": "decrease in viability", "setting": "[7]", "value": "> 3", "unit": "log CFU ml^−1"}
    ]}
  ]
}
